Reference: patent US20250353853A1, “FLAVIVIRUS INHIBITORS” (IRBM S.P.A., priority 2022, published 2025)
Where a name gives a salt, the structure may show the parent alone.

These compounds were tested on ZIKV replicon in Vero cells (assay: ZIKV Replication Inhibition Assay (replicon, NanoLuc)). Details: Zika virus, Vero, 72 h, read-out: Zika Replicon EC50.

Compound	EC50
Cc1cnncc1-c1ccc(C[n+]2cc([N-]C(=O)Nc3cccc(C(F)(F)F)c3)on2)cc1 [Example 93, (3-(4-(5-methylpyridazin-4-yl)benzyl)-1,2,3-oxadiazol-3-ium-5-yl)((3-(trifluoromethyl)phenyl)carbamoyl)amide]	< 100 nM
Cc1noc(C)c1-c1cccc(C[n+]2cc([N-]C(=O)Nc3cccc(C(F)(F)F)c3)on2)c1 [Example 94, (3-(3-(3,5-dimethylisoxazol-4-yl)benzyl)-1,2,3-oxadiazol-3-ium-5-yl)((3-(trifluoromethyl)phenyl)carbamoyl)amide]	100 to 1000 nM
Cc1c(-c2ccc(C[n+]3cc([N-]C(=O)Nc4cccc(C(F)(F)F)c4)on3)cc2)cnn1C [Example 95, (3-(4-(1,5-dimethyl-1H-pyrazol-4-yl)benzyl)-1,2,3-oxadiazol-3-ium-5-yl)((3-(trifluoromethyl)phenyl)carbamoyl)amide]	100 to 1000 nM
Cc1nn(C)cc1-c1ccc(C[n+]2cc([N-]C(=O)Nc3cccc(C(F)(F)F)c3)on2)cc1 [Example 96, (3-(4-(1,3-dimethyl-1H-pyrazol-4-yl)benzyl)-1,2,3-oxadiazol-3-ium-5-yl)((3-(trifluoromethyl)phenyl)carbamoyl)amide]	100 to 1000 nM
Cc1nn(C)c(C)c1-c1ccc(C[n+]2cc([N-]C(=O)Nc3cccc(C(F)(F)F)c3)on2)cc1 [Example 97]	< 100 nM
Cc1ncn(C)c1-c1ccc(C[n+]2cc([N-]C(=O)Nc3cccc(C(F)(F)F)c3)on2)cc1 [Example 98, (3-(4-(1,4-dimethyl-1H-imidazol-5-yl)benzyl)-1,2,3-oxadiazol-3-ium-5-yl)((3-(trifluoromethyl)phenyl)carbamoyl)amide]	100 to 1000 nM
Cc1noc(C)c1-c1ccc([C@H](CN)[n+]2cc([N-]C(=O)Nc3cccc(C(F)(F)F)c3)on2)cc1 [Example 99, (R)-(3-(2-amino-1-(4-(3,5-dimethylisoxazol-4-yl)phenyl)ethyl)-1,2,3-oxadiazol-3-ium-5-yl)((3-(trifluoromethyl)phenyl)carbamoyl)amide formate]	< 100 nM
O=C([N-]c1c[n+](Cc2csc(-c3cncnc3)c2)no1)Nc1cccc(C(F)(F)F)c1 [Example 100, (3-((5-(pyrimidin-5-yl)thiophen-3-yl)methyl)-1,2,3-oxadiazol-3-ium-5-yl)((3-(trifluoromethyl)phenyl)carbamoyl)amide]	100 to 1000 nM
Cc1cc(C[n+]2cc([N-]C(=O)Nc3cccc(C(F)(F)F)c3)on2)ccc1-c1cncnc1C [Example 101, (3-(3-methyl-4-(4-methylpyrimidin-5-yl)benzyl)-1,2,3-oxadiazol-3-ium-5-yl)((3-(trifluoromethyl)phenyl)carbamoyl)amide]	< 100 nM
NC[C@@H](c1ccc(-c2cncnc2)cc1)[n+]1cc([N-]C(=O)Nc2cccc(C(F)(F)F)c2)on1 [Example 102, (R)-(3-(2-amino-1-(4-(pyrimidin-5-yl)phenyl)ethyl)-1,2,3-oxadiazol-3-ium-5-yl)((3-(trifluoromethyl)phenyl)carbamoyl)amide formate]	100 to 1000 nM
O=C([N-]c1c[n+](Cc2ccc(-c3cncnc3)nc2)no1)Nc1cccc(C(F)(F)F)c1 [Example 103, (3-((6-(pyrimidin-5-yl)pyridin-3-yl)methyl)-1,2,3-oxadiazol-3-ium-5-yl)((3-(trifluoromethyl)phenyl)carbamoyl)amide]	100 to 1000 nM
Cc1noc(C)c1-c1ccc(C[n+]2cc([N-]C(=O)Nc3cccc(C(F)(F)F)c3)on2)cn1 [Example 104, (3-((6-(3,5-dimethylisoxazol-4-yl)pyridin-3-yl)methyl)-1,2,3-oxadiazol-3-ium-5-yl)((3-(trifluoromethyl)phenyl)carbamoyl)amide]	< 100 nM
Cc1ncc(-c2ccc(C[n+]3cc([N-]C(=O)Nc4cccc(C(F)(F)F)c4)on3)cc2)n1C [Example 105, (3-(4-(1,2-dimethyl-1H-imidazol-5-yl)benzyl)-1,2,3-oxadiazol-3-ium-5-yl)((3-(trifluoromethyl)phenyl)carbamoyl)amide]	100 to 1000 nM
N#Cc1ncncc1-c1ccc(C[n+]2cc([N-]C(=O)Nc3cccc(C(F)(F)F)c3)on2)cc1 [Example 106, (3-(4-(4-cyanopyrimidin-5-yl)benzyl)-1,2,3-oxadiazol-3-ium-5-yl)((3-(trifluoromethyl)phenyl)carbamoyl)amide]	100 to 1000 nM
O=C([N-]c1c[n+](Cc2ccc(-c3c(F)nc[nH]c3=O)cc2)no1)Nc1cccc(C(F)(F)F)c1 [Example 107, (3-(4-(4-fluoro-6-oxo-1,6-dihydropyrimidin-5-yl)benzyl)-1,2,3-oxadiazol-3-ium-5-yl)((3-(trifluoromethyl)phenyl)carbamoyl)amide]	1000 to 20000 nM
O=C([N-]c1c[n+](Cc2ccc(-c3cncnc3)cn2)no1)Nc1cccc(C(F)(F)F)c1 [Example 108, (3-((5-(pyrimidin-5-yl)pyridin-2-yl)methyl)-1,2,3-oxadiazol-3-ium-5-yl)((3-(trifluoromethyl)phenyl)carbamoyl)amide]	100 to 1000 nM
Cc1noc(C)c1-c1ccc(C[n+]2cc([N-]C(=O)Nc3cccc(C(F)(F)F)c3)on2)nc1 [Example 109, (3-((5-(3,5-dimethylisoxazol-4-yl)pyridin-2-yl)methyl)-1,2,3-oxadiazol-3-ium-5-yl)((3-(trifluoromethyl)phenyl)carbamoyl)amide]	< 100 nM
Cc1ncncc1-c1csc(C[n+]2cc([N-]C(=O)Nc3cccc(C(F)(F)F)c3)on2)c1 [Example 110, (3-((4-(4-methylpyrimidin-5-yl)thiophen-2-yl)methyl)-1,2,3-oxadiazol-3-ium-5-yl)((3-(trifluoromethyl)phenyl)carbamoyl)amide]	100 to 1000 nM
COc1ncnc(C)c1-c1ccc(C[n+]2cc([N-]C(=O)Nc3cccc(C(F)(F)F)c3)on2)cc1 [Example 111, (3-(4-(4-methoxy-6-methylpyrimidin-5-yl)benzyl)-1,2,3-oxadiazol-3-ium-5-yl)((3-(trifluoromethyl)phenyl)carbamoyl)amide]	< 100 nM
Cc1ncnc(OCCO)c1-c1ccc(C[n+]2cc([N-]C(=O)Nc3cccc(C(F)(F)F)c3)on2)cc1 [Example 112, (3-(4-(4-(2-hydroxyethoxy)-6-methylpyrimidin-5-yl)benzyl)-1,2,3-oxadiazol-3-ium-5-yl)((3-(trifluoromethyl)phenyl)carbamoyl)amide]	< 100 nM
COc1ncc(-c2ccc(C[n+]3cc([N-]C(=O)Nc4cccc(Cl)c4)on3)cc2)c(C)n1 [Example 113, ((3-chlorophenyl)carbamoyl)(3-(4-(2-methoxy-4-methylpyrimidin-5-yl)benzyl)-1,2,3-oxadiazol-3-ium-5-yl)amide]	100 to 1000 nM
COc1ncc(-c2ccc(C[n+]3cc([N-]C(=O)Nc4cccc(C#N)c4)on3)cc2)c(C)n1 [Example 114, ((3-cyanophenyl)carbamoyl)(3-(4-(2-methoxy-4-methylpyrimidin-5-yl)benzyl)-1,2,3-oxadiazol-3-ium-5-yl)amide]	1000 to 20000 nM
COc1ncc(-c2ccc(C[n+]3cc([N-]C(=O)Nc4ccccc4)on3)cc2)c(C)n1 [Example 115, (3-(4-(2-methoxy-4-methylpyrimidin-5-yl)benzyl)-1,2,3-oxadiazol-3-ium-5-yl)(phenylcarbamoyl)amide]	1000 to 20000 nM
